Assay results: patent US9675598B2, “Compositions of tolperisone” (SANOCHEMIA PHARMAZEUTIKA AG, priority 2007, dated 2017)

Tests used:
[1] = 4-MMPPO content after standard single recrystallization of tolperisone (Example 2); format: physicochemical
Procedure: All samples used in the analytical sequence were prepared for analysis as follows. Sample were homogenized if necessary (e.g., tablets) and weighed. For each tolperisone sample, approximately 20 mg of sample was added into a 20 mL flask. 20 mL of 50 mM HCl in MeOH was added to the flask, which was then placed in an ultrasonic bath for about 5 minutes. The contents of the flask were mixed on a vortexer for about 20 seconds. In instances in which the tolperisone sample had initially been in tablet form, the solution was then centrifuged at 4000 rpm for 2 minutes. 200 μL of the sample was then transferred into a small conical centrifuge vial. 20 μL of an internal standard solution containing deuterated 4-MMPPO, 200 μL of buffer at pH 1, and 0.4 mL of diisopropyl ether (DIPE) were added to the vial. The sample was then extracted by vortexing with a DVX-2500 multi-tube vortexer (2100 rpm) for about 2 minutes (cycle: 5 seconds run, 1 second pause time) and centrifugation (phase separation) at 4000 rpm for 2 minutes. 150 μL of 50 mM HCl in MeOH/DMSO (½) was added into empty designated conical autosampler vials. After centrifugation, 100 μL of supernatant was transferred into these conical autosampler vials. The vials were crimped and vortexed with a DVX-2500 multi-tube vortexer (2100 rpm) for about 1 minute. […]

[2] = 4-MMPPO content after recrystallization using acidified solvent system (Example 5); format: physicochemical; settings: 1% (v/v) concentrated aqueous HCl added to the recrystallization mixture
Procedure: Crude tolperisone was dissolved in an 85:15 (v/v) mixture of 2-butanone (MEK) and isopropanol, accompanied by addition of 1% HCl under reflux for 12 hours. The temperature was decreased to 80° C. and the solution filtered while hot. The solution was cooled to 5° C. and stirred for 7 h at 5° C.
The crystalline precipitate was separated by filtering, washed with isopropanol, and subsequently dried in vacuo at 45 to 85° C., with lower drying temperatures being preferred.
When 1% (v/v) concentrated aqueous HCl was added to the recrystallization mixture, 4-MMPPO levels dropped below 6.6 ppm in the final recrystallized tolperisone product.

4-MMPPO content of recrystallized product ([1]; ppm as printed): 1400 ppm
4-MMPPO content, subsequent production batches ([1]; subsequent production batches): < 0.05%
4-MMPPO levels in the final recrystallized tolperisone product [2]: below 6.6 ppm
Compound: Cc1ccc(C(=O)C(C)CN2CCCCC2)cc1 (stereo not drawn) [tolperisone, 2-methyl-1-(4-methylphenyl)-3-(piperidinyl)-1-propanone]
